ChEMBL document CHEMBL1201862, “PubChem BioAssay data set” (2004)
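A five-concentration, 48-hour dose response in 96-well plates underlies each endpoint, interpolated linearly between surrounding concentrations. Here, GI50 denotes the concentration required for 50% inhibition of growth.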 Activity calls are given as the source filed them. Rule as the data show it: active = GI50 up to about 1.1 µM and inactive = higher.

Experiments:
Assay in all cases: DTP human tumour cell line panel, 48 h
DLD-1 = tested on: DLD-1
DMS-273 = tested on: DMS-273
HOP-18 = tested on: HOP-18
KM-20L2 = tested on: KM-20L2
LXFL 529 = tested on: LXFL 529
M19-MEL = tested on: M19-MEL
SNB-78 = tested on: SNB-78
XF498 = tested on: XF498
RXF 631 = tested on: RXF 631

SMILES	GI50 (DLD-1)	GI50 (DMS-273)	GI50 (HOP-18)	GI50 (KM-20L2)	GI50 (LXFL 529)	GI50 (M19-MEL)	GI50 (SNB-78)	GI50 (XF498)	GI50 (RXF 631)
O=C1c2ccccc2C(=O)c2c1oc1cc(O)c(Cl)cc21	6.22 µM (inactive)	2.41 µM (inactive)	1.73 µM (inactive)	2.67 µM (inactive)	20.5 µM (inactive)	0.177 µM (active)	5.69 µM (inactive)	7.41 µM (inactive)	
O=[N+]([O-])c1ccc(C2CC(c3ccc(NCc4nc5ccccc5[nH]4)cc3)=NO2)cc1 (stereo not drawn)	45 µM (inactive)	32.1 µM (inactive)	> 100 µM (inactive)		16.4 µM (inactive)	33.7 µM (inactive)			
O=C1/C(=C/c2ccccc2)CN(C(=O)OCc2ccccc2)C/C1=C\c1ccccc1	3.63 µM (inactive)	5 µM (inactive)	> 10 µM (inactive)	11.1 µM (inactive)		5.87 µM (inactive)	14.8 µM (inactive)	16.6 µM (inactive)	16.9 µM (inactive)
CCOC(=O)/C(Br)=C1/OC(=O)c2ccccc2-c2ccccc21.CCOC(=O)/C(Br)=C1\OC(=O)c2ccccc2-c2ccccc21	17.9 µM (inactive)	14.7 µM (inactive)	22 µM (inactive)		13.6 µM (inactive)	15.8 µM (inactive)	20.6 µM (inactive)	18.5 µM (inactive)	21.9 µM (inactive)
C/C(=N\NS(=O)(=O)c1ccc([N+](=O)[O-])cc1)c1ccc[n+]([O-])n1	2.58 µM (inactive)	0.764 µM (active)	11.6 µM (inactive)	4.48 µM (inactive)	2.21 µM (inactive)	2.04 µM (inactive)	4.48 µM (inactive)	2.64 µM (inactive)	
CN(C)C(=O)OC(Cn1cncn1)c1ccc(Cl)cc1Cl (stereo not drawn)	> 100 µM (inactive)	> 100 µM (inactive)	> 100 µM (inactive)	> 100 µM (inactive)	> 100 µM (inactive)	> 100 µM (inactive)	> 100 µM (inactive)		
COc1ccc(/C=C2\CN(C)Cc3c2nc(N)nc3-c2ccc(OC)cc2)cc1	57 µM (inactive)	> 100 µM (inactive)		82 µM (inactive)	49.5 µM (inactive)	95.3 µM (inactive)	> 100 µM (inactive)	35 µM (inactive)	
CCCCCCCCCCCCCC(=S)N/C=C/OC	33.4 µM (inactive)		35.8 µM (inactive)	40.1 µM (inactive)	38.3 µM (inactive)	31.1 µM (inactive)	48 µM (inactive)	24.3 µM (inactive)	
CN(C)CCCNc1c2ccccc2nc2cccc([N+](=O)[O-])c12		0.01 µM (active)		0.01 µM (active)		0.01 µM (active)	0.0117 µM (active)	0.01 µM (active)	
NC1N=Nc2ccccc21 (stereo not drawn)	> 100 µM (inactive)	> 100 µM (inactive)		> 100 µM (inactive)	> 100 µM (inactive)	> 100 µM (inactive)		> 100 µM (inactive)	> 100 µM (inactive)
COC1OC(C)C(OC(=O)C(C)(C)C)C(OS(=O)(=O)c2ccc(C)cc2)C1OS(=O)(=O)c1ccc(C)cc1 (stereo not drawn)	> 100 µM (inactive)	> 100 µM (inactive)	> 100 µM (inactive)	> 100 µM (inactive)	> 100 µM (inactive)	> 100 µM (inactive)	> 100 µM (inactive)		
CCCCNC(=NC#N)NCCCC	> 100 µM (inactive)	> 100 µM (inactive)	> 100 µM (inactive)	> 100 µM (inactive)	> 100 µM (inactive)	83.4 µM (inactive)	> 100 µM (inactive)	> 100 µM (inactive)	> 100 µM (inactive)
COc1ccc(Br)c2c1CC(C(=O)O)CC2 (stereo not drawn)	> 100 µM (inactive)	> 100 µM (inactive)	> 100 µM (inactive)	> 100 µM (inactive)	> 100 µM (inactive)		> 100 µM (inactive)	> 100 µM (inactive)	
COc1cccc(C2=NC(C(C)C)CO2)c1 (stereo not drawn)	> 100 µM (inactive)	> 100 µM (inactive)		> 100 µM (inactive)	> 100 µM (inactive)	> 100 µM (inactive)	> 100 µM (inactive)	> 100 µM (inactive)	
COc1ccc2c(c1OC)C(=O)C2		> 100 µM (inactive)	> 100 µM (inactive)	> 100 µM (inactive)	> 100 µM (inactive)	> 100 µM (inactive)		> 100 µM (inactive)	
N#CCCN(c1ccc(/C=N/c2ccccc2)cc1)S(=O)(=O)c1ccccc1	> 100 µM (inactive)	> 100 µM (inactive)			4.44 µM (inactive)	> 100 µM (inactive)	> 100 µM (inactive)	0.834 µM (active)	
COC1(C)CC2N(C(=O)c3ccccc3)N=C(c3ccccc3)CC2(C)O1 (stereo not drawn)	44.5 µM (inactive)			> 100 µM (inactive)	> 100 µM (inactive)			> 100 µM (inactive)	> 100 µM (inactive)
CCOC(=O)/N=C(\N)SCc1ccccc1	> 100 µM (inactive)	> 100 µM (inactive)	> 100 µM (inactive)	> 100 µM (inactive)	> 100 µM (inactive)	> 100 µM (inactive)	> 100 µM (inactive)	> 100 µM (inactive)	> 100 µM (inactive)
CC(=O)OC1COC(N2C(=O)C(=O)c3c(C)cc(Cl)nc32)C(OC(C)=O)C1OC(C)=O (stereo not drawn)	> 100 µM (inactive)	> 100 µM (inactive)	> 100 µM (inactive)	> 100 µM (inactive)	> 100 µM (inactive)	> 100 µM (inactive)	> 100 µM (inactive)	> 100 µM (inactive)	
Cc1cc(C)nc(Nc2nc3cc([N+](=O)[O-])ccc3[nH]2)n1	> 100 µM (inactive)	> 100 µM (inactive)		> 100 µM (inactive)	> 100 µM (inactive)		> 100 µM (inactive)	> 100 µM (inactive)	
Cc1nn(-c2nc3ccccc3s2)c2c1C(=O)c1ccccc1-2	> 100 µM (inactive)	> 100 µM (inactive)	> 100 µM (inactive)	> 100 µM (inactive)	74.8 µM (inactive)	> 100 µM (inactive)	> 100 µM (inactive)		
C[Si](C)(C)c1ccc(CC2(Cc3ccc([Si](C)(C)C)cc3)CCNC2)cc1	2.51 µM (inactive)	1.94 µM (inactive)	2.77 µM (inactive)	1.9 µM (inactive)	2.18 µM (inactive)	1.95 µM (inactive)	3.13 µM (inactive)		2.32 µM (inactive)
COC1/C=C/O[C@@]2(C)Oc3c(C)c(O)c4c(O)c(cc(O)c4c3C2=O)NC(=O)/C(C)=C\C=C\[C@H](C)C(O)[C@@H](C)[C@@H](O)[C@@H](C)[C@H](OC(C)=O)[C@@H]1C (stereo partly drawn)	10.1 µM (inactive)	17.9 µM (inactive)	17.7 µM (inactive)	13.3 µM (inactive)		12.1 µM (inactive)	32.8 µM (inactive)	14.8 µM (inactive)	
O=C(/C=N/c1ccccc1[S-])c1ccco1.O=C(/C=N/c1ccccc1[S-])c1ccco1.[Zn+2]	4.44 µM (inactive)			15.3 µM (inactive)	10 µM (inactive)		16.8 µM (inactive)		17 µM (inactive)
NC(=O)N1N=C2c3ccccc3CC[C@@H]2C1c1ccccc1 (stereo partly drawn)	> 100 µM (inactive)	> 100 µM (inactive)		> 100 µM (inactive)	> 100 µM (inactive)	> 100 µM (inactive)	> 100 µM (inactive)		
COc1ccc(/C=C/c2cc(OC)c(O[Si](C)(C)C(C)(C)C)c(OC)c2)cc1	> 100 µM (inactive)	67 µM (inactive)		> 100 µM (inactive)	> 100 µM (inactive)	46.5 µM (inactive)		> 100 µM (inactive)	73.1 µM (inactive)
CCCC1(CC(=O)O)OCCc2c1[nH]c1ccccc21 (stereo not drawn) [PRODOLIC ACID]	> 100 µM (inactive)	> 100 µM (inactive)	> 100 µM (inactive)	> 100 µM (inactive)	> 100 µM (inactive)	> 100 µM (inactive)	> 100 µM (inactive)	> 100 µM (inactive)	
